Laboratory results as given in ChEMBL document CHEMBL5291721, “A preclinical secondary pharmacology resource illuminates target-adverse drug reaction associations of marketed drugs” (Nat Commun, 2023).

Legend:
[1] = biological target: Acetylcholinesterase (Homo sapiens, UniProt P22303); assay type: functional
[2] = biological target: T1, Adenosine receptor A1 (Homo sapiens, UniProt P30542)
T1 sequence (P30542 whole entry): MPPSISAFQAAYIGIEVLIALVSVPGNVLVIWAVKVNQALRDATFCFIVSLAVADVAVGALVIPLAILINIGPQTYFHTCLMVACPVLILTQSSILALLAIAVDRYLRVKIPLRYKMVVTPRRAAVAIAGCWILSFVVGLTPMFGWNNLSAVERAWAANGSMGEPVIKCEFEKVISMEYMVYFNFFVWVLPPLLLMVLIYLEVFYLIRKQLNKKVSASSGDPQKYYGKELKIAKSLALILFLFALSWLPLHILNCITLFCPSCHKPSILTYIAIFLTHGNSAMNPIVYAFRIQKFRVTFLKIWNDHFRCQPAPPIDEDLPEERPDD

[3] = biological target: T2, Adenosine receptor A3 (Homo sapiens, UniProt P0DMS8)
T2 sequence (P0DMS8 whole entry): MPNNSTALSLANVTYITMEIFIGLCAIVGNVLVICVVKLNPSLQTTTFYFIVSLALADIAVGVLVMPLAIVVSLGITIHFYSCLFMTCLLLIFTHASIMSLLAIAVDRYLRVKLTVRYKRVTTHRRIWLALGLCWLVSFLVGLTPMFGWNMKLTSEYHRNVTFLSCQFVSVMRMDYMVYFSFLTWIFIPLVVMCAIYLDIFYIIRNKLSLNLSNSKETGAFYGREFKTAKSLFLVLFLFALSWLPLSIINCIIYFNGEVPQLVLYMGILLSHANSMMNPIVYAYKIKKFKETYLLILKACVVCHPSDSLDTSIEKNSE

[4] = biological target: T3, Estrogen receptor (Homo sapiens, UniProt P03372)
T3 sequence (P03372 whole entry): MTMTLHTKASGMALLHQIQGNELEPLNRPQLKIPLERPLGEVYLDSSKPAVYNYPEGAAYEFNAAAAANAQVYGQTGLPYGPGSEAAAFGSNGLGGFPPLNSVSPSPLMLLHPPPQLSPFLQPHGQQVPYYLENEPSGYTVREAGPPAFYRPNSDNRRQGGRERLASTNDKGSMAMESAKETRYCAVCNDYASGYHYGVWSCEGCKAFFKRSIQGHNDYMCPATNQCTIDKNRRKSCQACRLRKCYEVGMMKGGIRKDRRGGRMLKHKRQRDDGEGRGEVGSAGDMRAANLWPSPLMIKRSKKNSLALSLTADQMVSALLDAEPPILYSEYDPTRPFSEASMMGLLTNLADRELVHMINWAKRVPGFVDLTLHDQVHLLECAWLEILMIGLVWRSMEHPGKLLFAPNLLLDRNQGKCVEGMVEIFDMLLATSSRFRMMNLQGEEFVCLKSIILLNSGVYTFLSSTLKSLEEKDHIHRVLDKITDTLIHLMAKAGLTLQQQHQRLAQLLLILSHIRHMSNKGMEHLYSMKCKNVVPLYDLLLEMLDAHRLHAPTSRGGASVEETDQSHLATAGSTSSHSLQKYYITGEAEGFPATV

[5] = biological target: Prothrombin (Homo sapiens, UniProt P00734); assay type: functional
[6] = biological target: Vascular endothelial growth factor receptor 2 (Homo sapiens, UniProt P35968); assay type: functional
[7] = biological target: cGMP-inhibited 3',5'-cyclic phosphodiesterase 3A (Homo sapiens, UniProt Q14432); assay type: functional
Sequence of cGMP-inhibited 3',5'-cyclic phosphodiesterase 3A (Q14432 whole entry): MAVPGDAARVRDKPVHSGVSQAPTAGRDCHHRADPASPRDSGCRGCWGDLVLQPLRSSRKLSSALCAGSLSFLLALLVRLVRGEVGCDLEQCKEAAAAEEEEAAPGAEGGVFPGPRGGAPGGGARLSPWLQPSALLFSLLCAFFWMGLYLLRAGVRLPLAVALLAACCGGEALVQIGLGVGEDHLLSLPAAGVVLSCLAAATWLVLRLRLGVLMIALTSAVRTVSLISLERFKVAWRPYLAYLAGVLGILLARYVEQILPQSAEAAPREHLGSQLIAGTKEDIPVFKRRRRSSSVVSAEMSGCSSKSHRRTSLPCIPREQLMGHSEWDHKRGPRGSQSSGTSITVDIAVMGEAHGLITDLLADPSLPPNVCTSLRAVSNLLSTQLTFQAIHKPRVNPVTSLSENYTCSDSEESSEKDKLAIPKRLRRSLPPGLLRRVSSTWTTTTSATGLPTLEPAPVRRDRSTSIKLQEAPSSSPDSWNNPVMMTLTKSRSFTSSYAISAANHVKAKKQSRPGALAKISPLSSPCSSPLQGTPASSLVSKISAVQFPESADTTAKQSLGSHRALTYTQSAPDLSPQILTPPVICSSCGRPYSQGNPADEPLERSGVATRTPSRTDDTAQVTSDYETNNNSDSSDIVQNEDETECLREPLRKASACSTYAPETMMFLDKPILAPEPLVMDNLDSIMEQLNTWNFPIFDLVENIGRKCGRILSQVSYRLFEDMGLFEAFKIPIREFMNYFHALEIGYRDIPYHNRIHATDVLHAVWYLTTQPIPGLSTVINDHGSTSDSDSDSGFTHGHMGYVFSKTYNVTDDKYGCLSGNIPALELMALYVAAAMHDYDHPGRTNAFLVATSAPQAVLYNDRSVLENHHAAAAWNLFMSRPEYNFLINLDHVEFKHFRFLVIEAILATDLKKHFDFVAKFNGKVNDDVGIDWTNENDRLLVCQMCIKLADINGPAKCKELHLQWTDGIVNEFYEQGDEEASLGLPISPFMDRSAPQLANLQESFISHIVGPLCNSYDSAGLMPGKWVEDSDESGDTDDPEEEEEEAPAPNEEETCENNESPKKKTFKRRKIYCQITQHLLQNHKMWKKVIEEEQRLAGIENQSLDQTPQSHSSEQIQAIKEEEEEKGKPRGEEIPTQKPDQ

[8] = biological target: 3',5'-cyclic-AMP phosphodiesterase 4A (Homo sapiens, UniProt P27815); assay type: functional
Sequence of 3',5'-cyclic-AMP phosphodiesterase 4A (P27815 whole entry): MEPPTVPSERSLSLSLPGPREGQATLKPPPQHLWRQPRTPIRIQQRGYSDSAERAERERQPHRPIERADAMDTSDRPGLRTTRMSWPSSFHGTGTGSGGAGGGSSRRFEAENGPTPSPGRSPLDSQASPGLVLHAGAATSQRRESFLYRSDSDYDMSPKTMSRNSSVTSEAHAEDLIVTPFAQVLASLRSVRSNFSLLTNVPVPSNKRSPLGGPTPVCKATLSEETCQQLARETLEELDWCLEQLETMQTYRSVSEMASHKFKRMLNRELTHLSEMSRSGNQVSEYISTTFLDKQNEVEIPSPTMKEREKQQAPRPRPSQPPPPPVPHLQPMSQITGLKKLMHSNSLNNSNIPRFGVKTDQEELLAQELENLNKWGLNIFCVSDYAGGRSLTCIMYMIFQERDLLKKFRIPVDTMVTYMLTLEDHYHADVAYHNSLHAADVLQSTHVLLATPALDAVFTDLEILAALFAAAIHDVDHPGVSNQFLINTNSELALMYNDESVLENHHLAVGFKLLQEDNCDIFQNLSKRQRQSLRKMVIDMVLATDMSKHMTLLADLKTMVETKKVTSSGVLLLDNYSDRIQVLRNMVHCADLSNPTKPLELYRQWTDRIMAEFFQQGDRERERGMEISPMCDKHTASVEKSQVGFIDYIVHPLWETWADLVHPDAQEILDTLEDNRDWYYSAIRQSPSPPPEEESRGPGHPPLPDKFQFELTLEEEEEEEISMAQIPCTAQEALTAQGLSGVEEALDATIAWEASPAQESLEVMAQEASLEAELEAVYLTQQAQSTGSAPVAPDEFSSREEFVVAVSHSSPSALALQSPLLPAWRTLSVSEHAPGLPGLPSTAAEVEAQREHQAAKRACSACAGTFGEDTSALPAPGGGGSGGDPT

[9] = biological target: T4, Progesterone receptor (Homo sapiens, UniProt P06401)
T4 sequence (P06401 whole entry): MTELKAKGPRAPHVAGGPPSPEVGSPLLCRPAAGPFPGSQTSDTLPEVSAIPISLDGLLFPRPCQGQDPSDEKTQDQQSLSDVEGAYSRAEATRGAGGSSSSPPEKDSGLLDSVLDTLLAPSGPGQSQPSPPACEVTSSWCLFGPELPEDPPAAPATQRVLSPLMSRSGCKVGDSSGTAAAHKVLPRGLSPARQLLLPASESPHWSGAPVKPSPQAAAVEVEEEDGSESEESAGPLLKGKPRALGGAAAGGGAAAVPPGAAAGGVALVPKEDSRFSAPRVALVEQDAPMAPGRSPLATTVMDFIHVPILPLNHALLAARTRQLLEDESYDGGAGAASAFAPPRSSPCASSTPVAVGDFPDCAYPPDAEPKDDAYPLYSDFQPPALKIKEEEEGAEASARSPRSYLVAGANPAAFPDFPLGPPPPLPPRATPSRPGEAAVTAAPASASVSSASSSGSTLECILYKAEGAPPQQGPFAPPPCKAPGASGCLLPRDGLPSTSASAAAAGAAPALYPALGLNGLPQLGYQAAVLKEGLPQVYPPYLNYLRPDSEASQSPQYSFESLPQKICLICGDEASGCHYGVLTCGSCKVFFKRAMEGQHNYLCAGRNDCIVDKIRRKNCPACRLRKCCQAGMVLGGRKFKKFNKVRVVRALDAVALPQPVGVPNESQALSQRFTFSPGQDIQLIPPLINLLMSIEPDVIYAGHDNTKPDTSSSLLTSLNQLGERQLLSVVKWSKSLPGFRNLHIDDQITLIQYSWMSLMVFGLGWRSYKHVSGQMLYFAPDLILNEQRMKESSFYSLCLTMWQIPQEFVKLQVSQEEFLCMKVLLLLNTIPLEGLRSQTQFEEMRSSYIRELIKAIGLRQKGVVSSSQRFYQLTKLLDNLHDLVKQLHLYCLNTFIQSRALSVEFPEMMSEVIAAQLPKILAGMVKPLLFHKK

[10] = biological target: T5, Prostaglandin G/H synthase 1 (Homo sapiens, UniProt P23219); assay type: functional
T5 sequence (P23219 whole entry): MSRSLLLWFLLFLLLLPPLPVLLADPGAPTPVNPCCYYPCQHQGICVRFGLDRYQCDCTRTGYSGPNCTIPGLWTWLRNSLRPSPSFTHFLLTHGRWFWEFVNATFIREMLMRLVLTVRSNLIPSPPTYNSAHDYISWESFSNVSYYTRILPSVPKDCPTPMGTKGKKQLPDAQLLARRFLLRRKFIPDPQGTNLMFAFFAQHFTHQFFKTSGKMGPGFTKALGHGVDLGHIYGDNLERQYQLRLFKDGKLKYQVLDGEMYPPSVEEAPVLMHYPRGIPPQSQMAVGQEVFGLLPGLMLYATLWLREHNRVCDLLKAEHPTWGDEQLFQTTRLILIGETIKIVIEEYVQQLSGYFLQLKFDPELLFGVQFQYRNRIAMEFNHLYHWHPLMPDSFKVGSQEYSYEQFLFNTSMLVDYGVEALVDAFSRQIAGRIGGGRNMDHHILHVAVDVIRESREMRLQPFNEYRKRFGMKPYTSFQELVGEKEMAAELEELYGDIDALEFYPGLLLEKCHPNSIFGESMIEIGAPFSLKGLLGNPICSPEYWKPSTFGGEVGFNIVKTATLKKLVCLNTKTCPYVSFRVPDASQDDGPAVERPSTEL

[11] = biological target: T5, Prostaglandin G/H synthase 1; assay type: functional; remark: listed apart in the source
[12] = biological target: T6, Thromboxane A2 receptor (Homo sapiens, UniProt P21731); assay type: functional, cell-based
T6 sequence (P21731 whole entry): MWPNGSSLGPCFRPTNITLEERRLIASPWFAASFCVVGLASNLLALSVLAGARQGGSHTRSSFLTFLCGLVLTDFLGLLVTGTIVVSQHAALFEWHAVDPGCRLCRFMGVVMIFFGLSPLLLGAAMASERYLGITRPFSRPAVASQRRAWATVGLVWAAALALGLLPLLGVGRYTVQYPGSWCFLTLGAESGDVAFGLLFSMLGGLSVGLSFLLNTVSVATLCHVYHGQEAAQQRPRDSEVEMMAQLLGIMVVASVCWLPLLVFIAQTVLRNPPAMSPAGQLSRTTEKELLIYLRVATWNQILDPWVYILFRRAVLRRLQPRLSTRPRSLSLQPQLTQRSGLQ

[13] = biological target: T6, Thromboxane A2 receptor; assay type: functional, cell-based; remark: listed apart in the source
[14] = biological target: T7, D(4) dopamine receptor (Homo sapiens, UniProt P21917)
T7 sequence (P21917 whole entry): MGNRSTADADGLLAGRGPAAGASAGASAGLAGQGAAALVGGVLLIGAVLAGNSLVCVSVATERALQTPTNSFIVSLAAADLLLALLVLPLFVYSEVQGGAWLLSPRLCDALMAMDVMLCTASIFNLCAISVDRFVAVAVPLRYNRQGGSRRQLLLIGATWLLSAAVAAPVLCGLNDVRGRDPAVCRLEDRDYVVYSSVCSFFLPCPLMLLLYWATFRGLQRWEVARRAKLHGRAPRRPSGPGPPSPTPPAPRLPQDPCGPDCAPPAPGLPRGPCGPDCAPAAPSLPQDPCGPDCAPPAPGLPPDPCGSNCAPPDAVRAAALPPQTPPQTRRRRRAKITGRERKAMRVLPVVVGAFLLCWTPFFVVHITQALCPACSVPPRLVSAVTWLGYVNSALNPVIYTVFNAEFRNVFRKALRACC

[15] = biological target: Voltage-gated inwardly rectifying potassium channel KCNH2 (Homo sapiens, UniProt Q12809); assay type: functional; settings: read-out: AC50
Sequence of Voltage-gated inwardly rectifying potassium channel KCNH2 (Q12809 whole entry): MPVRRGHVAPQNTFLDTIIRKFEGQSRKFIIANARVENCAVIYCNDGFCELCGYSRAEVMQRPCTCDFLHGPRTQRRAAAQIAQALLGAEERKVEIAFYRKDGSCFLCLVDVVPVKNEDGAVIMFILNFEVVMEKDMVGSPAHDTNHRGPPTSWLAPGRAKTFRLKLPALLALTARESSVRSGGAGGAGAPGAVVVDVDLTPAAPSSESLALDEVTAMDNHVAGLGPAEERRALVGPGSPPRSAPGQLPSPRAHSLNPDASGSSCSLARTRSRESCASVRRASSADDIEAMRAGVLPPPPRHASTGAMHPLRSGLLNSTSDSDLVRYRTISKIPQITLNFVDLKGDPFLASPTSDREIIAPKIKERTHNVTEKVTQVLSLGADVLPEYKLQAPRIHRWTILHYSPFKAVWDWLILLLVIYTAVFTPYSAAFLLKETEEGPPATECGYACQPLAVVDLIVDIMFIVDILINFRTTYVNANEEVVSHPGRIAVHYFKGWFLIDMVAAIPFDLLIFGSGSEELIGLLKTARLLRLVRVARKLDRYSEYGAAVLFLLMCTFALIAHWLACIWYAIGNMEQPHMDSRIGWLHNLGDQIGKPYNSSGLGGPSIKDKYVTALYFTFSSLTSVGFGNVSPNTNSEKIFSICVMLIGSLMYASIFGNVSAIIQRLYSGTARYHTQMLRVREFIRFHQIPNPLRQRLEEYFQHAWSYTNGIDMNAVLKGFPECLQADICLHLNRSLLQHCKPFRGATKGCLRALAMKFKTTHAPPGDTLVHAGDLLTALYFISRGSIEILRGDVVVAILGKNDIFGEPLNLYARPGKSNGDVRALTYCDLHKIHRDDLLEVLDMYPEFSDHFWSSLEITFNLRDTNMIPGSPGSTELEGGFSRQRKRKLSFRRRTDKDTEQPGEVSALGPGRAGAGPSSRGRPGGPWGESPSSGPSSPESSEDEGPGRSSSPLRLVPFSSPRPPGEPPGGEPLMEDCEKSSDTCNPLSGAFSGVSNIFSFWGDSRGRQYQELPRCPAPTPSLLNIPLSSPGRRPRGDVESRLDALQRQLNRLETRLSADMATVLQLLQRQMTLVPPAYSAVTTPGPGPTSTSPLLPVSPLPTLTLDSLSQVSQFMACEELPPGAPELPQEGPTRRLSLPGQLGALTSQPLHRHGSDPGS
Note: assay procedure not described here.

Sequence of Acetylcholinesterase (P22303 whole entry): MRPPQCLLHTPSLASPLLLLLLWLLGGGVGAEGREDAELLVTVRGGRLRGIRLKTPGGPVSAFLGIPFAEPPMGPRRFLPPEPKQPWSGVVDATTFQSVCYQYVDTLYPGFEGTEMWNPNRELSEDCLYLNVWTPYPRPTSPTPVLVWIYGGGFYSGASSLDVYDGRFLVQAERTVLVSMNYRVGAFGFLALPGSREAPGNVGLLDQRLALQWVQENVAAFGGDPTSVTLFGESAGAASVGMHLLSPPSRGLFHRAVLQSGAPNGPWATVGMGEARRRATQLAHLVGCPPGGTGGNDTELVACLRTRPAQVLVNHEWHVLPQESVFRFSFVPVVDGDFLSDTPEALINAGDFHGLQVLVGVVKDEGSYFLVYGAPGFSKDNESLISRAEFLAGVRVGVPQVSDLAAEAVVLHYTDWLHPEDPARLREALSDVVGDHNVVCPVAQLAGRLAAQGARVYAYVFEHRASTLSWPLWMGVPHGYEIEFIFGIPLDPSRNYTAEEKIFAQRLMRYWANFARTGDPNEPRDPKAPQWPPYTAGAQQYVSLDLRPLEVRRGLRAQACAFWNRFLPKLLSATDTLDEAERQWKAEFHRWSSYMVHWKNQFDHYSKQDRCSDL

`C=CC[C@]1(O)CC[C@H]2[C@@H]3CCC4=CCCC[C@@H]4[C@H]3CC[C@@]21C` [ALLYLESTRENOL] was tested, and the AC50 [1] was greater than 30 µM, the AC50 [2] was greater than 30 µM and the AC50 [3] was 3.91 µM. It also gave an AC50 [4] of 0.331 µM, an AC50 [5] greater than 30 µM and an AC50 [6] greater than 30 µM. It also gave an AC50 [7] greater than 30 µM, an AC50 [8] greater than 30 µM and an AC50 [9] of 0.0039 µM. It also gave an AC50 [10] of 25.5 µM, an AC50 [11] greater than 30 µM and an AC50 [12] greater than 30 µM. It also gave an AC50 [13] greater than 30 µM.

`COC(=O)[C@@H]1[C@H]2C[C@H]3c4[nH]c5ccccc5c4CCN3C[C@@H]2CC[C@@H]1O` [YOHIMBINE] gave an AC50 [1] greater than 0.3 µM, an AC50 [14] greater than 10 µM and an AC50 [15] of 29.1 µM.
